Test results from ChEMBL document CHEMBL1125334, “New nonpeptide angiotensin II receptor antagonists. 2. Synthesis, biological properties, and structure-activity relationships of 2-alkyl-4-(biphenylylmethoxy)quinoline derivatives” (J Med Chem, 1992).

Key:
[1] = target: Angiotensin II receptor (Rattus norvegicus) (UniProt P29089+P25095+P35351); experiment: (§1) Intravenous administration to conscious rats for inhibition of pressor response induced by infusion of AII (angiotensin-II).; assay type: functional, organism-based
[2] = target: T1, Type-1 angiotensin II receptor (Cavia porcellus, UniProt Q9WV26); experiment: In vitro inhibition of the specific binding of [125I]angiotensin II to a guinea pig adrenal membrane preparation
T1 sequence (Q9WV26 whole entry): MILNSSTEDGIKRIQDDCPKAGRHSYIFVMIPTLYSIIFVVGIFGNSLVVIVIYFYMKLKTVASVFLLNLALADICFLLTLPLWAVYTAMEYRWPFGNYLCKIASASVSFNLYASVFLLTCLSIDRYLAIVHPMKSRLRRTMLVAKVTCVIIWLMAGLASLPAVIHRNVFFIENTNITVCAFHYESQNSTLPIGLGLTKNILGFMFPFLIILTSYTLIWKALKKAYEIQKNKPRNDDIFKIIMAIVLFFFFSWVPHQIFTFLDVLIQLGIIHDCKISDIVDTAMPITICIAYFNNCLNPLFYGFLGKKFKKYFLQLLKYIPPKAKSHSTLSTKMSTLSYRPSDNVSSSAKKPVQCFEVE

Rattus norvegicus = experiment: as §1; assay type: functional

ED50 [1] [mg/kg]	IC50 [2] [nM]	SMILES	ED50 (Rattus norvegicus) [mg/kg]
> 5	310	Cc1cc(OCc2ccc(-c3ccccc3-c3nn[nH]n3)cc2)c2cccc(C)c2n1	
	360	CCc1cc(OCc2ccc(-c3ccccc3-c3nnn[nH]3)cc2)c2cc(C#N)ccc2n1	
	430	CCCCc1nc(Cl)c(CO)n1Cc1ccc(-c2ccccc2C(=O)O)cc1	
	13	CCc1cc(OCc2ccc(-c3ccccc3-c3nnn[nH]3)cc2)c2c(C)cccc2n1	
	18	CCCCc1nc(Cl)c(CO)n1Cc1ccc(-c2ccccc2-c2nn[nH]n2)cc1 [LOSARTAN POTASSIUM]	
	60	CCc1cc(OCc2ccc(-c3ccccc3-c3nnn[nH]3)cc2)c2c(C#N)cccc2n1	
	31	CCc1cc(OCc2ccc(-c3ccccc3-c3nnn[nH]3)cc2)c2ccccc2n1	1
0.18		CCc1cc(OCc2ccc(-c3ccccc3-c3nn[nH]n3)cc2)c2cc(OC(C)C)ccc2n1	
> 5		CCc1cc(OCc2ccc(-c3ccccc3-c3nn[nH]n3)cc2)c2cc(C(F)(F)F)ccc2n1	
	120	CCc1cc(OCc2ccc(-c3ccccc3-c3nnn[nH]3)cc2)c2c(Cl)cccc2n1	
0.34	70	CCc1cc(OCc2ccc(-c3ccccc3-c3nn[nH]n3)cc2)c2cc(OCCF)ccc2n1	
	600	CCCc1cc(OCc2ccc(-c3ccccc3C(=O)O)cc2)c2ccccc2n1	
> 5		CCc1cc(OCc2ccc(-c3ccccc3-c3nn[nH]n3)cc2)c2cccc(C(F)(F)F)c2n1	
	26	CCc1cc(OCc2ccc(-c3ccccc3-c3nnn[nH]3)cc2)c2cc(OC(C)C)ccc2n1	
> 5		CCc1cc(OCc2ccc(-c3ccccc3-c3nn[nH]n3)cc2)c2c(Cl)cccc2n1	
	4600	Cc1nc2ccccc2c(OCc2ccc(-c3ccccc3-c3nnn[nH]3)cc2)c1C	
> 5	140	CCc1cc(OCc2ccc(-c3ccccc3-c3nn[nH]n3)cc2)c2ccc(C)cc2n1	
0.73		Cc1cc(OCc2ccc(-c3ccccc3-c3nn[nH]n3)cc2)c2ccccc2n1	

ED50 [1] [mg/kg]	IC50 [2] [nM]	SMILES	ED50 (Rattus norvegicus) [mg/kg]
> 5	470	Cc1ccc2nc(C)cc(OCc3ccc(-c4ccccc4-c4nn[nH]n4)cc3)c2c1	
	270	Cc1cc(CCc2ccc(-c3ccccc3-c3nnn[nH]3)cc2)c2ccccc2n1	
> 5		CCc1cc(OCc2ccc(-c3ccccc3-c3nn[nH]n3)cc2)c2cc(C#N)ccc2n1	
0.65		CCCCc1nc(Cl)c(CO)n1Cc1ccc(-c2ccccc2-c2nnn[nH]2)cc1	
	180	Cc1cc(OCc2ccc(-c3ccccc3C(=O)O)cc2)c2ccccc2n1	
> 5		CCc1cc(OCc2ccc(-c3ccccc3-c3nn[nH]n3)cc2)c2ccc(OC)cc2n1	
	140	CCc1cc(OCc2ccc(-c3ccccc3-c3nnn[nH]3)cc2)c2cccc(Cl)c2n1	
> 5	960	CCc1cc(OCc2ccc(-c3ccccc3-c3nn[nH]n3)cc2)c2cccc(OC)c2n1	
0.71	26	CCc1cc(OCc2ccc(-c3ccccc3-c3nn[nH]n3)cc2)c2cc(OCC(F)(F)F)ccc2n1	
> 5	460	CCc1cc(OCc2ccc(-c3ccccc3-c3nn[nH]n3)cc2)c2ccc(C#N)cc2n1	
> 5	160	CCc1cc(OCc2ccc(-c3ccccc3-c3nn[nH]n3)cc2)c2ccc(Cl)cc2n1	
	220	CCc1cc(OCc2ccc(-c3ccccc3-c3nnn[nH]3)cc2)c2ccc(OC)cc2n1	
	370	Cc1cc(SCc2ccc(-c3ccccc3-c3nn[nH]n3)cc2)c2ccccc2n1	
0.32	22	CCc1cc(OCc2ccc(-c3ccccc3-c3nn[nH]n3)cc2)c2cc(OC)ccc2n1	
2.1	66	CCc1cc(OCc2ccc(-c3ccccc3-c3nn[nH]n3)cc2)c2cc(C(=O)OC)ccc2n1	
	860	CCc1cc(OCc2ccc(-c3ccccc3-c3nnn[nH]3)cc2)c2cc(C(F)(F)F)ccc2n1	
	6300	c1ccc(-c2nnn[nH]2)c(-c2ccc(COc3ccnc4ccccc34)cc2)c1	
